Series [1] is described as follows: Aeration of suspension mixes, height of the foam in the mixing vessel. It counts as physicochemical. The conditions noted are these: for Foam Height: 0% mix: 5 mm. From the text: (§1) The effectiveness of chemical compounds comprising terpene and/or terpinol at minimizing aeration can be determined in part by measuring the particle size of the hydrophobic coated Ibuprofen in pharmaceutical suspension over time. If the chemical compound is effective, the aeration of the suspension will be adequately low and the particle size of the hydrophobic coated Ibuprofen will remain constant or decrease very little over time. If ineffective, the aeration of the suspension will be higher than desired and the particle size of the hydrophobic coated Ibuprofen can decrease more substantially over time. The extent of aeration of the suspension is assessed by measurement of height of the foam in the mixing vessel. The particle size of the functionally-coated particles can be measured using laser diffraction, a particle analyzer such as a Malvern Mastersizer, or any other suitable means for analyzing fine particles. Example 7: A series of suspension mixes were manufactured by mixing the coated Ibuprofen in the matrix solution/suspension containing various levels of limonene, orange flavor, and strawberry flavor. The height of the foam from these suspension is summarized in Table 7, 8, and 9 respectively.

Series [2] can be described thus: Particle size of hydrophobic coated Ibuprofen in suspension with liquid flavor or limonene. Format: physicochemical. The conditions noted are these: 0.25% w/w versus 0.45% w/w and 0.75% w/w, 24 hours.
Source text: as §1, with “particles.” for “particles. Example 7: A series of suspension mixes were manufactured by mixing the coated Ibuprofen in the matrix solution/suspension containing various levels of limonene, orange flavor, and strawberry flavor. The height of the foam from these suspension is summarized in Table 7, 8, and 9 respectively.”
Example 8: FIGS. 10, 11, and 12 show the decrease in particle size (d10, d50, and d90, respectively) of hydrophobic coated Ibuprofen in a pharmaceutical suspension comprising various concentrations of liquid orange flavor. A particle size expressed in terms of its d10 means that 10 percent of the particles in a given volume of sample lie below a given particle size. […]

For the compound `C=C(C)[C@H]1CC=C(C)CC1` [limonene], the “Aeration of the suspension” value in series [1] (0.25% w/w) is “sufficiently low amount of aeration”. Moreover, the entries for the “Foam Height” value in series [1] (0.30% w/w in mix with coated Ibuprofen), in series [1] (0.6% w/w in mix with coated Ibuprofen) and in series [1] ([…] w/w in mix with coated Ibuprofen) were 1 mm, 1 mm and 2 mm, respectively. In addition, the Effect on aeration result in series [1] (level […] w/w and above) is “minimize the aeration”. In addition, the “Effect on the coating (particle size d10, d50, d90)” value in series [2] is recorded as “much less deleterious effect”.

For the origin of these results see patent publication US11931464B2, “Minimizing agglomeration, aeration, and preserving the coating of pharmaceutical compositions comprising ibuprofen” (Catalent U.K. Swindon Zydis Limited, priority 2019, dated 2024).
